Data published in the supplement of paper PMC10307832.

Compound: C1CN(CCN1)C2=CC=C(C=C2)C3=CN4C(=C(C=N4)C5=CC=NC6=CC=CC=C56)N=C3 [DM3189] + CC(=O)c1c(C)c2cnc(Nc3ccc(N4CCNCC4)cn3)nc2n(C2CCCC2)c1=O [Palbociclib] (partner 0.5 µM)
Experiment: relative viability (nuclei count vs DMSO), 5 days (fraction); higher = more cells survive
Summary of the method: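 The day after seeding in 1536-well plates, lung cancer cell lines were treated by pin tool with a single drug, or with a fixed anchor-drug dose together with five library-drug doses (not always all listed) in √10 steps. After 5 days, a combined fix-and-stain solution (final 0.05% Triton X-100, 1% formaldehyde, 1 ug/ml Hoechst) was added. Nuclei counted on 4× images gave relative viability as treated counts over vehicle counts, reported as the median of duplicate plates.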

Cell Line	relative viability (first compound 0.08 µM)	relative viability (first compound 0.253 µM)	relative viability (first compound 0.8 µM)	relative viability (first compound 2.53 µM)
EMC-BAC-2	0.515	0.494	0.484	0.525
NCI-H727	0.581	0.581	0.579	0.608
LU99A	0.482	0.372		0.365
LK-2	0.51	0.393	0.387	0.243
NCI-H322M	0.501	0.489	0.516	0.43
NCI-H2405	0.54	0.55	0.494	0.453
HCC-827	0.539	0.437	0.452	0.428
NCI-H1666	0.553	0.637	0.656	
NCI-H358	0.278	0.13	0.126	0.127
201T	0.419	0.364	0.342	0.366
RERF-LC-KJ	1.31	1.27	0.989	1.03
NCI-H3122	0.2	0.178	0.154	0.162
LXF-289	0.597	0.606	0.565	0.562
EKVX	0.402		0.291	0.393
A-427	0.593	0.492	0.474	0.524
ChaGo-K-1	0.947	0.908	0.914	0.964
NCI-H2342	0.509	0.489	0.532	0.512
SK-MES-1	0.236	0.26	0.343	0.305

Cell Line	relative viability (first compound 0.08 µM)	relative viability (first compound 0.253 µM)	relative viability (first compound 0.8 µM)	relative viability (first compound 2.53 µM)
LCLC-97TM1	0.196	0.154	0.177	0.178
NCI-H2170	0.484	0.363	0.368	0.347
NCI-H2009	0.264	0.195	0.184	0.217
NCI-H520	0.206	0.202	0.206	0.173
NCI-H1975	0.697	0.57	0.379	0.333
SK-LU-1	0.339	0.268	0.329	0.31
NCI-H441	0.25	0.222	0.197	0.169
NCI-H1651	0.543	0.554	0.582	0.574
HARA	0.288	0.194	0.225	0.263
H3255	0.37	0.313	0.308	0.329
NCI-H460	0.305	0.187	0.158	0.16
CAL-12T	0.713	0.335	0.451	0.352
ABC-1	0.713	0.642	0.498	0.553
NCI-H1792	0.569	0.675	0.716	0.609
NCI-H1437	0.359	0.364	0.339	0.388
HOP-62	0.53	0.453	0.46	0.402
EPLC-272H	0.321	0.318	0.343	0.341
COR-L 105	0.408	0.441	0.353	0.489
